Results as given in the supplement of paper PMC10307832.

Legend:
Experiment in all cases: relative viability (nuclei count vs DMSO), 5 days (fraction); higher = more cells survive
[1] = compound: CN(C)CC1=CC(=CC=C1)N=C(C2=CC=CC=C2)C3=C(NC4=C3C=CC(=C4)C(=O)N(C)C)O + C[C@@H](Oc1cc(-c2cnn(C3CCNCC3)c2)cnc1N)c1c(Cl)ccc(F)c1Cl [Crizotinib] (partner 1 µM)
Summary of the method: (§1)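 Lung cancer cell lines were pin-tool dosed in 1536-well plates on the day after seeding, with either a lone drug or a fixed anchor-drug dose plus five library-drug doses (not always all listed) in √10 steps. Nuclei were counted on 4× images after 5 days. Relative viability is the ratio of treated-well to vehicle-well nuclei counts, with each value a median of duplicate plates.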

[2] = compound: CN(C)CC1=CC(=CC=C1)N=C(C2=CC=CC=C2)C3=C(NC4=C3C=CC(=C4)C(=O)N(C)C)O + NC(=O)Nc1cc(-c2cccc(F)c2)sc1C(=O)N[C@H]1CCCNC1 [AZD7762] (partner 0.2 µM)
Summary of the method: as §1

[3] = compound: CN(C)CC1=CC(=CC=C1)N=C(C2=CC=CC=C2)C3=C(NC4=C3C=CC(=C4)C(=O)N(C)C)O + CC(=O)c1c(C)c2cnc(Nc3ccc(N4CCNCC4)cn3)nc2n(C2CCCC2)c1=O [Palbociclib] (partner 0.5 µM)
Summary of the method: as §1

[4] = compound: CN(C)CC1=CC(=CC=C1)N=C(C2=CC=CC=C2)C3=C(NC4=C3C=CC(=C4)C(=O)N(C)C)O + O=C(CCCCCCC(=O)Nc1ccccc1)NO [Vorinostat] (partner 1 µM)
Summary of the method: as §1

NCI-H1703 was tested, and the relative viability ([1]; first compound 0.08 µM) was 0.65, the relative viability ([1]; first compound 0.253 µM) was 0.591 and the relative viability ([1]; first compound 0.8 µM) was 0.715. For the same cell line, the relative viability ([1]; first compound 2.53 µM) was 0.341, the relative viability ([1]; first compound 8 µM) was 0.138 and the relative viability ([2]; first compound 0.08 µM) was 0.128. The relative viability ([2]; first compound 0.253 µM) was 0.126, the relative viability ([2]; first compound 0.8 µM) was 0.119 and the relative viability ([2]; first compound 2.53 µM) was 0.133. For the same cell line, the relative viability ([2]; first compound 8 µM) was 0.0959.
With NCI-H1792 the relative viability ([3]; first compound 0.08 µM) was 0.666, the relative viability ([3]; first compound 0.253 µM) was 0.638 and the relative viability ([3]; first compound 0.8 µM) was 0.673. For the same cell line, the relative viability ([3]; first compound 2.53 µM) was 0.641, the relative viability ([3]; first compound 8 µM) was 0.665 and the relative viability ([1]; first compound 0.08 µM) was 0.68. It also gave a relative viability ([1]; first compound 0.253 µM) of 0.97, a relative viability ([1]; first compound 0.8 µM) of 0.954 and a relative viability ([1]; first compound 2.53 µM) of 0.786. It also gave a relative viability ([1]; first compound 8 µM) of 0.915, a relative viability ([2]; first compound 0.08 µM) of 0.639 and a relative viability ([2]; first compound 0.253 µM) of 0.658. For the same cell line, the relative viability ([2]; first compound 0.8 µM) was 0.643, the relative viability ([2]; first compound 2.53 µM) was 0.506 and the relative viability ([2]; first compound 8 µM) was 0.71.
NCI-H1793 gave a relative viability ([3]; first compound 0.08 µM) of 0.27, a relative viability ([3]; first compound 0.253 µM) of 0.363 and a relative viability ([3]; first compound 0.8 µM) of 0.326. The relative viability ([3]; first compound 2.53 µM) was 0.329, the relative viability ([3]; first compound 8 µM) was 0.351 and the relative viability ([2]; first compound 0.08 µM) was 0.527. The relative viability ([2]; first compound 0.253 µM) was 0.386, the relative viability ([2]; first compound 0.8 µM) was 0.407 and the relative viability ([2]; first compound 2.53 µM) was 0.346. It also gave a relative viability ([2]; first compound 8 µM) of 0.436, a relative viability ([4]; first compound 0.08 µM) of 0.826 and a relative viability ([4]; first compound 0.253 µM) of 0.812. It also gave a relative viability ([4]; first compound 0.8 µM) of 0.563, a relative viability ([4]; first compound 2.53 µM) of 0.821 and a relative viability ([4]; first compound 8 µM) of 0.859.
NCI-H2009 was tested, and the relative viability ([3]; first compound 0.08 µM) was 0.165, the relative viability ([3]; first compound 0.253 µM) was 0.236 and the relative viability ([3]; first compound 0.8 µM) was 0.258. For the same cell line, the relative viability ([3]; first compound 2.53 µM) was 0.198, the relative viability ([3]; first compound 8 µM) was 0.192 and the relative viability ([1]; first compound 0.08 µM) was 1.11. For the same cell line, the relative viability ([1]; first compound 0.253 µM) was 1.03, the relative viability ([1]; first compound 0.8 µM) was 1.09 and the relative viability ([1]; first compound 2.53 µM) was 1.01. For the same cell line, the relative viability ([1]; first compound 8 µM) was 1, the relative viability ([4]; first compound 0.08 µM) was 0.76 and the relative viability ([4]; first compound 0.253 µM) was 0.724. It also gave a relative viability ([4]; first compound 0.8 µM) of 0.756, a relative viability ([4]; first compound 2.53 µM) of 0.727 and a relative viability ([4]; first compound 8 µM) of 0.708.
NCI-H2023 was tested, and the relative viability ([3]; first compound 0.08 µM) was 0.332, the relative viability ([3]; first compound 0.253 µM) was 0.325 and the relative viability ([3]; first compound 0.8 µM) was 0.357. The relative viability ([3]; first compound 2.53 µM) was 0.289, the relative viability ([3]; first compound 8 µM) was 0.36 and the relative viability ([1]; first compound 0.08 µM) was 0.797. For the same cell line, the relative viability ([1]; first compound 0.253 µM) was 0.698, the relative viability ([1]; first compound 0.8 µM) was 0.67 and the relative viability ([1]; first compound 2.53 µM) was 0.563. The relative viability ([1]; first compound 8 µM) was 0.498, the relative viability ([4]; first compound 0.08 µM) was 0.594 and the relative viability ([4]; first compound 0.253 µM) was 0.685. It also gave a relative viability ([4]; first compound 0.8 µM) of 0.765, a relative viability ([4]; first compound 2.53 µM) of 0.368 and a relative viability ([4]; first compound 8 µM) of 0.589.
NCI-H2228 gave a relative viability ([3]; first compound 0.08 µM) of 0.825, a relative viability ([3]; first compound 0.253 µM) of 0.602 and a relative viability ([3]; first compound 0.8 µM) of 0.715. The relative viability ([3]; first compound 2.53 µM) was 0.673, the relative viability ([3]; first compound 8 µM) was 0.77 and the relative viability ([1]; first compound 0.08 µM) was 0.406. It also gave a relative viability ([1]; first compound 0.253 µM) of 0.505, a relative viability ([1]; first compound 0.8 µM) of 0.442 and a relative viability ([1]; first compound 2.53 µM) of 0.432. The relative viability ([1]; first compound 8 µM) was 0.361, the relative viability ([4]; first compound 0.08 µM) was 0.653 and the relative viability ([4]; first compound 0.253 µM) was 0.583. The relative viability ([4]; first compound 0.8 µM) was 0.977, the relative viability ([4]; first compound 2.53 µM) was 0.65 and the relative viability ([4]; first compound 8 µM) was 0.542.
Cell Line NCI-H2342 has a relative viability ([3]; first compound 0.08 µM) of 0.519, a relative viability ([3]; first compound 0.253 µM) of 0.528 and a relative viability ([3]; first compound 0.8 µM) of 0.549. It also gave a relative viability ([3]; first compound 2.53 µM) of 0.547, a relative viability ([3]; first compound 8 µM) of 0.605 and a relative viability ([2]; first compound 0.08 µM) of 0.428. It also gave a relative viability ([2]; first compound 0.253 µM) of 0.582, a relative viability ([2]; first compound 0.8 µM) of 0.471 and a relative viability ([2]; first compound 2.53 µM) of 0.461. For the same cell line, the relative viability ([2]; first compound 8 µM) was 0.472, the relative viability ([4]; first compound 0.08 µM) was 0.728 and the relative viability ([4]; first compound 0.253 µM) was 0.928. It also gave a relative viability ([4]; first compound 0.8 µM) of 0.773, a relative viability ([4]; first compound 2.53 µM) of 0.87 and a relative viability ([4]; first compound 8 µM) of 0.913.
SK-LU-1 showed a relative viability ([3]; first compound 0.08 µM) of 0.335, a relative viability ([3]; first compound 0.253 µM) of 0.363 and a relative viability ([3]; first compound 0.8 µM) of 0.34. For the same cell line, the relative viability ([3]; first compound 2.53 µM) was 0.362, the relative viability ([3]; first compound 8 µM) was 0.369 and the relative viability ([1]; first compound 0.08 µM) was 1. The relative viability ([1]; first compound 0.253 µM) was 1.08, the relative viability ([1]; first compound 0.8 µM) was 0.982 and the relative viability ([1]; first compound 2.53 µM) was 0.825. The relative viability ([1]; first compound 8 µM) was 0.613, the relative viability ([4]; first compound 0.08 µM) was 0.796 and the relative viability ([4]; first compound 0.253 µM) was 0.861. For the same cell line, the relative viability ([4]; first compound 0.8 µM) was 0.735, the relative viability ([4]; first compound 2.53 µM) was 0.847 and the relative viability ([4]; first compound 8 µM) was 0.581.
SK-MES-1 showed a relative viability ([3]; first compound 0.08 µM) of 0.325, a relative viability ([3]; first compound 0.253 µM) of 0.277 and a relative viability ([3]; first compound 0.8 µM) of 0.357. For the same cell line, the relative viability ([3]; first compound 2.53 µM) was 0.305, the relative viability ([3]; first compound 8 µM) was 0.343 and the relative viability ([1]; first compound 0.08 µM) was 0.946. The relative viability ([1]; first compound 0.253 µM) was 1.03, the relative viability ([1]; first compound 0.8 µM) was 0.956 and the relative viability ([1]; first compound 2.53 µM) was 0.883. The relative viability ([1]; first compound 8 µM) was 0.939, the relative viability ([4]; first compound 0.08 µM) was 1.13 and the relative viability ([4]; first compound 0.253 µM) was 1.08. It also gave a relative viability ([4]; first compound 0.8 µM) of 1.08, a relative viability ([4]; first compound 2.53 µM) of 1.01 and a relative viability ([4]; first compound 8 µM) of 1.03.
In the case of SW 1573, the relative viability ([3]; first compound 0.08 µM) is reported as 0.323, the relative viability ([3]; first compound 0.253 µM) is reported as 0.42 and the relative viability ([3]; first compound 0.8 µM) is reported as 0.367. The relative viability ([3]; first compound 2.53 µM) was 0.34, the relative viability ([3]; first compound 8 µM) was 0.317 and the relative viability ([1]; first compound 0.08 µM) was 0.842. It also gave a relative viability ([1]; first compound 0.253 µM) of 0.854, a relative viability ([1]; first compound 0.8 µM) of 0.672 and a relative viability ([1]; first compound 2.53 µM) of 0.866. It also gave a relative viability ([1]; first compound 8 µM) of 0.794, a relative viability ([4]; first compound 0.08 µM) of 0.616 and a relative viability ([4]; first compound 0.253 µM) of 1.08. The relative viability ([4]; first compound 0.8 µM) was 0.958, the relative viability ([4]; first compound 2.53 µM) was 0.744 and the relative viability ([4]; first compound 8 µM) was 0.55.
In the case of UMC-11, the relative viability ([3]; first compound 0.08 µM) is reported as 0.351, the relative viability ([3]; first compound 0.253 µM) is reported as 0.311 and the relative viability ([3]; first compound 0.8 µM) is reported as 0.326. For the same cell line, the relative viability ([3]; first compound 2.53 µM) was 0.306, the relative viability ([3]; first compound 8 µM) was 0.291 and the relative viability ([1]; first compound 0.08 µM) was 0.62. It also gave a relative viability ([1]; first compound 0.253 µM) of 0.711, a relative viability ([1]; first compound 0.8 µM) of 0.662 and a relative viability ([1]; first compound 2.53 µM) of 0.468. The relative viability ([1]; first compound 8 µM) was 0.588, the relative viability ([4]; first compound 0.08 µM) was 0.318 and the relative viability ([4]; first compound 0.253 µM) was 0.399. The relative viability ([4]; first compound 0.8 µM) was 0.41, the relative viability ([4]; first compound 2.53 µM) was 0.364 and the relative viability ([4]; first compound 8 µM) was 0.34.
